Reference: paper PMC5218480 (PLoS ONE, 2017)

System: MV-4-11 cells
Assay: Gene expression microarray analysis (Affymetrix PrimeView) and GSEA
Format: cell-based, human
Set-up: RFU PODN (11730768_x_at) / Fold change /veh PODN (11730768_x_at) / RFU LINC00158 (11744669_a_at) / Fold change /veh LINC00158 (11744669_a_at) / RFU DUSP10 (11751237_a_at) / Fold change /veh DUSP10 (11751237_a_at) / RFU ID3 (11757404_x_at) / Fold change /veh ID3 (11757404_x_at) / RFU PLEKHG5 (11737974_s_at) / Fold change /veh PLEKHG5 (11737974_s_at) / RFU LRRC4B (11730491_at) / Fold change /veh LRRC4B (11730491_at) / RFU GIMAP4 (11747438_a_at) / Fold change /veh GIMAP4 (11747438_a_at) / RFU KRT8 (11758183_x_at) / Fold change /veh KRT8 (11758183_x_at) / RFU CNN1 (11734310_a_at) / Fold change /veh CNN1 (11734310_a_at) / RFU VPS37D (11726825_at) / Fold change /veh VPS37D (11726825_at) / RFU C10orf10 (11716522_x_at) / Fold change /veh C10orf10 (11716522_x_at) / RFU KIR2DL2 /// KIR2DL4 /// KIR2DL5A /// KIR2DL5B /// KIR2DS1 /// KIR2DS2 /// KIR2DS3 /// KIR2DS4 /// KIR3DL3 /// KIR3DL3 /// KIR3DS1 (11738374_at) / Fold change /veh KIR2DL2 /// KIR2DL4 /// KIR2DL5A /// KIR2DL5B /// KIR2DS1 /// KIR2DS2 /// KIR2DS3 /// KIR2DS4 /// KIR3DL3 /// KIR3DL3 /// KIR3DS1 (11738374_at) / RFU C1QL1 (11718748_at) / Fold change /veh C1QL1 (11718748_at) / RFU TMPRSS4 (11747572_a_at) / Fold change /veh TMPRSS4 (11747572_a_at) / RFU HAMP (11756126_x_at) / Fold change /veh HAMP (11756126_x_at) / RFU RNFT2 (11725882_a_at) / Fold change /veh RNFT2 (11725882_a_at) / RFU NR4A2 (11747474_a_at) / Fold change /veh NR4A2 (11747474_a_at) / RFU ABCC12 (11746883_a_at) / Fold change /veh ABCC12 (11746883_a_at) / RFU TMEM136 (11760407_x_at) / Fold change /veh TMEM136 (11760407_x_at) / RFU CLDN22 /// WWC2 (11732394_at) / Fold change /veh CLDN22 /// WWC2 (11732394_at) / RFU HLA-DPB1 (11760878_x_at) / Fold change /veh HLA-DPB1 (11760878_x_at) / RFU SPINT1 (11716480_a_at) / Fold change /veh SPINT1 (11716480_a_at) / RFU GAP43 (11754022_s_at) / Fold change /veh GAP43 (11754022_s_at) / RFU A4GNT (11735810_at) / Fold change /veh A4GNT (11735810_at) / RFU PRB3 (11715151_x_at) / Fold change /veh PRB3 (11715151_x_at) / RFU TUBB4B (11761932_at) / Fold change /veh TUBB4B (11761932_at) / RFU CAPN14 (11732068_a_at) / Fold change /veh CAPN14 (11732068_a_at) / RFU TMCC2 (11721928_a_at) / Fold change /veh TMCC2 (11721928_a_at) / RFU IRGQ (11745062_a_at) / Fold change /veh IRGQ (11745062_a_at) / RFU FAM174B (11720279_a_at) / Fold change /veh FAM174B (11720279_a_at) / RFU TMPRSS4 (11748680_a_at) / Fold change /veh TMPRSS4 (11748680_a_at) / RFU FAM212B (11763350_a_at) / Fold change /veh FAM212B (11763350_a_at) / RFU PLEKHG5 (11743358_a_at) / Fold change /veh PLEKHG5 (11743358_a_at) / RFU ZSCAN30 (11745921_a_at) / Fold change /veh ZSCAN30 (11745921_a_at) / RFU CMKLR1 (11741424_a_at) / Fold change /veh CMKLR1 (11741424_a_at) / RFU LOC101060620 /// MAPK8IP1 (11723275_at) / Fold change /veh LOC101060620 /// MAPK8IP1 (11723275_at) / RFU SPTSSB (11747773_x_at) / Fold change /veh SPTSSB (11747773_x_at) / RFU PRSS12 (11739890_at) / Fold change /veh PRSS12 (11739890_at) / RFU BIN1 (11741810_x_at) / Fold change /veh BIN1 (11741810_x_at) / RFU WNT11 (11732464_a_at) / Fold change /veh WNT11 (11732464_a_at) / RFU C10orf10 (11716521_a_at) / Fold change /veh C10orf10 (11716521_a_at) / RFU C5orf56 (11738089_at) / Fold change /veh C5orf56 (11738089_at) / RFU CYB561 (11721691_x_at) / Fold change /veh CYB561 (11721691_x_at) / RFU ANKRD19P (11752326_a_at) / Fold change /veh ANKRD19P (11752326_a_at) / RFU OR2T12 /// OR2T33 /// OR2T8 (11738714_s_at) / Fold change /veh OR2T12 /// OR2T33 /// OR2T8 (11738714_s_at) / RFU VCAN (11748164_a_at) / Fold change /veh VCAN (11748164_a_at) / RFU JSRP1 (11732532_at) / Fold change /veh JSRP1 (11732532_at) / RFU KRTAP10-11 (11738290_x_at) / Fold change /veh KRTAP10-11 (11738290_x_at) / RFU MYO3A (11730013_a_at) / Fold change /veh MYO3A (11730013_a_at) / RFU EBF3 (11725865_a_at) / Fold change /veh EBF3 (11725865_a_at) / RFU CAMK2N1 (11719241_x_at) / Fold change /veh CAMK2N1 (11719241_x_at) / RFU C5orf56 (11738088_a_at) / Fold change /veh C5orf56 (11738088_a_at) / RFU OLFML3 (11715873_a_at) / Fold change /veh OLFML3 (11715873_a_at) / RFU LOC100653217 /// NTM (11731650_a_at) / Fold change /veh LOC100653217 /// NTM (11731650_a_at) / RFU MAPK11 (11762145_a_at) / Fold change /veh MAPK11 (11762145_a_at) / RFU FIZ1 (11724087_x_at) / Fold change /veh FIZ1 (11724087_x_at) / RFU OASL (11726364_x_at) / Fold change /veh OASL (11726364_x_at) / RFU SOX15 (11748057_x_at) / Fold change /veh SOX15 (11748057_x_at) / RFU CD79A (11719716_a_at) / Fold change /veh CD79A (11719716_a_at) / RFU HIST1H1D (11736915_at) / Fold change /veh HIST1H1D (11736915_at) / RFU CASKIN2 (11723855_a_at) / Fold change /veh CASKIN2 (11723855_a_at) / RFU LOC730098 (11760151_x_at) / Fold change /veh LOC730098 (11760151_x_at) / RFU OR4N2 (11742367_at) / Fold change /veh OR4N2 (11742367_at) / RFU PRRT2 (11749266_a_at) / Fold change /veh PRRT2 (11749266_a_at) / RFU SNX32 (11753110_a_at) / Fold change /veh SNX32 (11753110_a_at) / RFU CDHR5 (11726645_a_at) / Fold change /veh CDHR5 (11726645_a_at) / RFU RCAN1 (11760418_a_at) / Fold change /veh RCAN1 (11760418_a_at) / RFU FAM167A (11723789_a_at) / Fold change /veh FAM167A (11723789_a_at) / RFU FAM26E (11764081_at) / Fold change /veh FAM26E (11764081_at) / RFU ISYNA1 (11749810_s_at) / Fold change /veh ISYNA1 (11749810_s_at) / RFU ACY1 (11761880_at) / Fold change /veh ACY1 (11761880_at) / RFU 11764098_at / Fold change /veh 11764098_at / RFU SAMD14 (11745864_x_at) / Fold change /veh SAMD14 (11745864_x_at) / RFU NPB (11741838_a_at) / Fold change /veh NPB (11741838_a_at) / RFU TMPRSS6 (11731388_a_at) / Fold change /veh TMPRSS6 (11731388_a_at) / RFU KRTAP10-2 (11738614_at) / Fold change /veh KRTAP10-2 (11738614_at) / RFU ARHGAP8 /// PRR5-ARHGAP8 (11727945_x_at) / Fold change /veh ARHGAP8 /// PRR5-ARHGAP8 (11727945_x_at) / RFU KRTAP5-7 /// NADSYN1 (11734609_at) / Fold change /veh KRTAP5-7 /// NADSYN1 (11734609_at) / RFU RASL12 (11751679_a_at) / Fold change /veh RASL12 (11751679_a_at) / RFU CDKN2B (11736163_a_at) / Fold change /veh CDKN2B (11736163_a_at) / RFU PRF1 (11729649_at) / Fold change /veh PRF1 (11729649_at) / RFU, ZNF638 /// ZNF638-IT1 / Fold change vs veh, ZNF638 /// ZNF638-IT1 / RFU, PANK3 / Fold change vs veh, PANK3 / RFU, SH3YL1 / Fold change vs veh, SH3YL1 / RFU, ZEB2 / Fold change vs veh, ZEB2 / RFU, NRIP1 / Fold change vs veh, NRIP1 / RFU, PTTG1IP / Fold change vs veh, PTTG1IP / RFU, CAPN2 / Fold change vs veh, CAPN2 / RFU, MED14 / Fold change vs veh, MED14 / RFU, SNORA58 / Fold change vs veh, SNORA58 / RFU, C1orf63 / Fold change vs veh, C1orf63 / RFU, LRRFIP1 / Fold change vs veh, LRRFIP1 / RFU, NDUFAF7 / Fold change vs veh, NDUFAF7 / RFU, SLC12A2 / Fold change vs veh, SLC12A2 / RFU, IBTK / Fold change vs veh, IBTK / RFU, ESF1 / Fold change vs veh, ESF1 / Fold change vs veh, TMEM50B / RFU, TAOK1 / Fold change vs veh, TAOK1 / RFU, ACBD3 / Fold change vs veh, ACBD3 / RFU, TMA16 / Fold change vs veh, TMA16 / RFU, RWDD3 / Fold change vs veh, RWDD3 / RFU, BCAT1 / Fold change vs veh, BCAT1 / RFU, EDEM3 / Fold change vs veh, EDEM3 / RFU, TMEM33 / Fold change vs veh, TMEM33 / RFU, WDR75 / Fold change vs veh, WDR75 / RFU, AHCTF1 / Fold change vs veh, AHCTF1 / RFU, TFRC / Fold change vs veh, TFRC / RFU, ZDHHC17 / Fold change vs veh, ZDHHC17 / RFU, NOM1 / Fold change vs veh, NOM1 / RFU, ARL8B / Fold change vs veh, ARL8B / RFU, ZBTB11 / Fold change vs veh, ZBTB11 / RFU, TAMM41 / Fold change vs veh, TAMM41 / RFU, KIAA1704 /// LOC100996395 / Fold change vs veh, KIAA1704 /// LOC100996395 / RFU, ING1 / Fold change vs veh, ING1 / RFU, TRMT61B / Fold change vs veh, TRMT61B / RFU, FUBP3 / Fold change vs veh, FUBP3 / RFU, TP53 / Fold change vs veh, TP53 / RFU, TNKS2 / Fold change vs veh, TNKS2 / RFU, ZFP14 / Fold change vs veh, ZFP14 / RFU, ACTR2 / Fold change vs veh, ACTR2 / RFU, PPP3R1 / Fold change vs veh, PPP3R1 / RFU, PIK3R1 / Fold change vs veh, PIK3R1 / RFU, HNRNPA1 / Fold change vs veh, HNRNPA1 / RFU, RNF170 / Fold change vs veh, RNF170 / RFU, ZNF28 / Fold change vs veh, ZNF28 / RFU, RNGTT / Fold change vs veh, RNGTT / RFU, OGT / Fold change vs veh, OGT / RFU, BRD1 / Fold change vs veh, BRD1 / RFU, MARS / Fold change vs veh, MARS / RFU, ZNF655 / Fold change vs veh, ZNF655 / RFU, FAHD1 / Fold change vs veh, FAHD1 / RFU, BDP1 / Fold change vs veh, BDP1 / RFU, LRRCC1 / Fold change vs veh, LRRCC1 / RFU, ARID1A / Fold change vs veh, ARID1A / RFU, ZNF146 / Fold change vs veh, ZNF146 / RFU, ZNF330 / Fold change vs veh, ZNF330 / RFU, GPN3 / Fold change vs veh, GPN3 / RFU, C9orf123 / Fold change vs veh, C9orf123 / RFU, N4BP2L2 / Fold change vs veh, N4BP2L2 / RFU, ARFIP1 / Fold change vs veh, ARFIP1 / RFU, FAM179B / Fold change vs veh, FAM179B / RFU, BCL10 / Fold change vs veh, BCL10 / RFU, UHRF1BP1L / Fold change vs veh, UHRF1BP1L / RFU, BET1 / Fold change vs veh, BET1 / RFU, CNOT2 / Fold change vs veh, CNOT2 / RFU, ZNF268 / Fold change vs veh, ZNF268 / Fold change vs veh, ZNF507 / RFU, DGCR2 / Fold change vs veh, DGCR2 / RFU, WDSUB1 / Fold change vs veh, WDSUB1 / Fold change vs veh, HSP90B1 /// MIR3652 / RFU, ADSS / Fold change vs veh, ADSS / RFU, GK / Fold change vs veh, GK / RFU, ZNF148 / Fold change vs veh, ZNF148 / RFU, TAF9 / Fold change vs veh, TAF9 / RFU, SLC1A5 / Fold change vs veh, SLC1A5 / RFU, SLMO2 / Fold change vs veh, SLMO2 / RFU, ABCC4 / Fold change vs veh, ABCC4 / RFU, LOC101060439 /// RAP1B / Fold change vs veh, LOC101060439 /// RAP1B / RFU, RFX7 / Fold change vs veh, RFX7 / RFU, GTPBP10 / Fold change vs veh, GTPBP10 / RFU, CNEP1R1 / Fold change vs veh, CNEP1R1 / RFU, BIVM-ERCC5 /// ERCC5 / Fold change vs veh, BIVM-ERCC5 /// ERCC5 / RFU, ILF3 / Fold change vs veh, ILF3 / RFU 11762660_at / Fold change /veh 11762660_at / RFU VCAN (11757783_s_at) / Fold change /veh VCAN (11757783_s_at) / RFU DDX43 (11728927_at) / Fold change /veh DDX43 (11728927_at) / RFU KRT8 (11758188_x_at) / Fold change /veh KRT8 (11758188_x_at) / RFU NKD1 (11759106_at) / Fold change /veh NKD1 (11759106_at) / RFU SRD5A1 (11742802_a_at) / Fold change /veh SRD5A1 (11742802_a_at) / RFU TPSAB1 /// TPSB2 (11721975_s_at) / Fold change /veh TPSAB1 /// TPSB2 (11721975_s_at) / RFU GSTM3 (11746129_a_at) / Fold change /veh GSTM3 (11746129_a_at) / RFU IL23R (11737362_x_at) / Fold change /veh IL23R (11737362_x_at) / RFU TMEM51 (11727254_a_at) / Fold change /veh TMEM51 (11727254_a_at) / RFU PIWIL2 (11732686_x_at) / Fold change /veh PIWIL2 (11732686_x_at) / RFU ORM1 (11744905_x_at) / Fold change /veh ORM1 (11744905_x_at) / RFU CCDC152 (11743942_at) / Fold change /veh CCDC152 (11743942_at) / RFU ECM1 (11717891_a_at) / Fold change /veh ECM1 (11717891_a_at) / RFU IL23R (11748794_a_at) / Fold change /veh IL23R (11748794_a_at) / RFU TNFAIP8L3 (11732012_x_at) / Fold change /veh TNFAIP8L3 (11732012_x_at) / RFU MBOAT4 (11741988_at) / Fold change /veh MBOAT4 (11741988_at) / RFU 11764193_at / Fold change /veh 11764193_at / RFU TMEM53 (11763286_at) / Fold change /veh TMEM53 (11763286_at) / RFU MAGEB2 (11727129_at) / Fold change /veh MAGEB2 (11727129_at) / RFU TMEM200A (11744735_a_at) / Fold change /veh TMEM200A (11744735_a_at) / RFU CCDC152 (11751479_a_at) / Fold change /veh CCDC152 (11751479_a_at) / RFU FAM211A (11726209_a_at) / Fold change /veh FAM211A (11726209_a_at) / RFU RGS16 (11746705_a_at) / Fold change /veh RGS16 (11746705_a_at) / RFU VCAN (11755009_s_at) / Fold change /veh VCAN (11755009_s_at) / RFU RHOB (11743442_s_at) / Fold change /veh RHOB (11743442_s_at) / RFU RGS16 (11720943_a_at) / Fold change /veh RGS16 (11720943_a_at) / RFU RGS16 (11720944_at) / Fold change /veh RGS16 (11720944_at) / RFU, VPS4B / Fold change vs veh, VPS4B / RFU, CREB1 / Fold change vs veh, CREB1 / RFU, DNAJC13 / Fold change vs veh, DNAJC13 / RFU, GNAQ / Fold change vs veh, GNAQ / RFU, CDK5R1 / Fold change vs veh, CDK5R1 / RFU, ZRANB3 / Fold change vs veh, ZRANB3 / RFU, CUL4A / Fold change vs veh, CUL4A / RFU, CCNY / Fold change vs veh, CCNY / RFU, UFL1 / Fold change vs veh, UFL1 / RFU, COG3 / Fold change vs veh, COG3 / RFU, DIAPH2 / Fold change vs veh, DIAPH2 / RFU, SKA2 / Fold change vs veh, SKA2 / RFU, AFF3 / Fold change vs veh, AFF3 / RFU, LMF1 / Fold change vs veh, LMF1 / RFU, IPO11 / Fold change vs veh, IPO11 / RFU, DFFB / Fold change vs veh, DFFB / RFU, FOXP1 / Fold change vs veh, FOXP1 / RFU, CARD8 / Fold change vs veh, CARD8 / RFU, STRN3 / Fold change vs veh, STRN3 / RFU, ADK / Fold change vs veh, ADK / RFU, RASSF2 / Fold change vs veh, RASSF2 / RFU, WIPF1 / Fold change vs veh, WIPF1 / RFU, LARP1B / Fold change vs veh, LARP1B / RFU, RASA1 / Fold change vs veh, RASA1 / RFU, RB1 / Fold change vs veh, RB1 / RFU, PPFIA1 / Fold change vs veh, PPFIA1 / RFU, MAT2A / Fold change vs veh, MAT2A / RFU, CCT5 / Fold change vs veh, CCT5 / RFU, WDR92 / Fold change vs veh, WDR92 / RFU, CUX1 / Fold change vs veh, CUX1 / RFU, TTC7A / Fold change vs veh, TTC7A / RFU, TMEM135 / Fold change vs veh, TMEM135 / RFU, DEPTOR / Fold change vs veh, DEPTOR / RFU, CPM / Fold change vs veh, CPM / RFU, DNAJB6 / Fold change vs veh, DNAJB6 / RFU, CACNA2D3 / Fold change vs veh, CACNA2D3 / RFU, DTX4 / Fold change vs veh, DTX4 / RFU, TFCP2 / Fold change vs veh, TFCP2 / RFU, GMCL1 /// GMCL1P1 / Fold change vs veh, GMCL1 /// GMCL1P1 / RFU, AEBP2 / Fold change vs veh, AEBP2 / RFU, SNHG1 /// SNORD22 /// SNORD25 /// SNORD26 /// SNORD27 /// SNORD28 /// SNORD29 /// SNORD31 / Fold change vs veh, SNHG1 /// SNORD22 /// SNORD25 /// SNORD26 /// SNORD27 /// SNORD28 /// SNORD29 /// SNORD31 / Fold change (Aza/veh), C12orf56 (ProbeSet 11735607_a_at) / Fold change (ACY-1035/veh), C12orf56 (ProbeSet 11735607_a_at) / Fold change (Aza/veh), FGFR1OP (ProbeSet 11751329_s_at) / Fold change (ACY-1035/veh), FGFR1OP (ProbeSet 11751329_s_at) / Fold change (Aza/veh), VPS36 (ProbeSet 11739960_a_at) / Fold change (ACY-1035/veh), VPS36 (ProbeSet 11739960_a_at) / RFU SYPL1 (11715823_x_at) / Fold change /veh SYPL1 (11715823_x_at) / RFU IGFBP7 (11715501_s_at) / Fold change /veh IGFBP7 (11715501_s_at) / RFU REEP3 (11722064_at) / Fold change /veh REEP3 (11722064_at) / RFU IGLL1 (11728026_x_at) / Fold change /veh IGLL1 (11728026_x_at): dose or concentration left out as unconfirmed
Settings: ProbeSet 11725787_a_at; LIST B

Nc1ccc(-c2cccs2)cc1NC(=O)c1ccc2c(c1)cc(C1CC1)n2CCN1CCOCC1 [ACY-1035]
Fold change vs veh, TMA16: 0.86
